Assay results published in patent publication US7300946B2, “N-(substituted arylmethyl)-4-(disubstituted methyl) piperidines and pyridines” (Bayer CropScience AG, priority 2002, dated 2007).

What follows are compounds tested on tobacco budworm (Heliothis virescens [Fabricius]) (assay: surface-treated diet test against the tobacco budworm). Settings: tobacco budworm second instar larvae; 0.25 millimoles of candidate insecticide on the surface of the diet; five-day exposure; compared to total number of insects infested.
Format: in vivo
Description: Candidate insecticides were evaluated for activity against the tobacco budworm (Heliothis virescens [Fabricius]) in a surface-treated diet test.
In this test one mL of molten (65–70° C.) wheat germ-based artificial diet was pipetted into each well of a four by six (24 well) multi-well plate (ID# 430345-15.5 mm dia.×17.6 mm deep; Corning Costar Corp., One Alewife Center, Cambridge, Mass. 02140). The diet was allowed to cool to ambient temperature before treatment with candidate insecticide.
For a determination of insecticidal activity, solutions of the candidate insecticides were prepared for testing using a Packard 204DT Multiprobe® Robotic System (Packard Instrument Company, 800 Research Parkway, Meriden, Conn. 06450), in which the robot first diluted a standard 50 millimolar DMSO solution of candidate insecticide with a 1:1 water/acetone solution (V/V) in a ratio of 1:7 stock solution to water/acetone. The robot subsequently pipetted 40 microliters of the so-prepared solution onto the surface of the diet in each of three wells in the 24 multi-well plate. The process was repeated with solutions of seven other candidate insecticides. Once treated, the contents of the multi-well plate were allowed to dry, leaving 0.25 millimoles of candidate insecticide on the surface of the diet, or a concentration of 0.25 millimolar. Appropriate untreated controls containing only DMSO on the diet surface were also included in this test. […]
In each well of the test plate was placed one second instar tobacco budworm larvea, each weighing approximately five milligrams. After the larvae were placed in each well, the plate was sealed with clear polyfilm adhesive tape. The tape over each well was perforated to ensure an adequate air supply. The plates were then held in a growth chamber at 25° C. and 60% relative humidity for five days (light 14 hours/day).
After the five-day exposure period insecticidal activity for each rate of application of candidate insecticide was assessed as percent inhibition of insect weight relative to the weight of insects from untreated controls, and percent mortality when compared to the total number of insects infested.
The test compounds of formula I are identified by numbers that correspond to those in Table 1.
These tests were conducted with 0.25 millimoles of candidate insecticide on the surface of the diet.

Going from `[O-][N+]1(Cc2ccc(Oc3ccccc3F)cc2)CCC(=C(c2ccc(C(F)(F)F)cc2)c2ccc(C(F)(F)F)cc2)CC1` (stereo not shown) [Compound 839] to `FC(F)(F)c1ccc(C(=C2CCN(Cc3ccc(Oc4cnccn4)cc3)CC2)c2ccc(C(F)(F)F)cc2)cc1` [Compound 825], the “Percent Mortality” value falls from 100% to 83%.

Going from `C=CCOC(c1ccc(C(F)(F)F)cc1)C1CCN(Cc2ccc(Oc3ccccn3)cc2)CC1` (stereo not shown) [Compound 769] to `CNC(=O)OC(c1ccc(C(F)(F)F)cc1)C1CCN(Cc2ccc(Oc3ccccn3)cc2)CC1` (stereo not shown) [Compound 771], the “Percent Mortality” value rises from 0% to 17%.

Compared with `Fc1cc(F)cc(C(=C2CCN(Cc3ccc(Oc4ncccn4)cc3)CC2)c2ccc(C(F)(F)F)cc2)c1` [Compound 820], `O=C(Nc1cc(F)cc(F)c1)OC(c1ccc(C(F)(F)F)cc1)C1CC[N+]([O-])(Cc2ccc(Oc3ncccn3)cc2)CC1` (stereo not shown) [Compound 765] is higher in “Percent Mortality” value: 50% for the first, 100% for the second.

`FC(F)(F)c1ccc(C(=C2CCN(Cc3ccc(Nc4ccccn4)cc3)CC2)c2ccc(C(F)(F)F)cc2)cc1` [Compound 811] and `CC(C)(C)NC(=O)OC(c1ccc(C(F)(F)F)cc1)C1CCN(Cc2ccc(Oc3ccccn3)cc2)CC1` (stereo not shown) [Compound 779] are the same in “Percent Mortality” value: 100% for the first, 100% for the second.

With `O=C(Nc1cccc(F)c1)OC(c1cc(Cl)cc(Cl)c1)C1CCN(Cc2ccc(Oc3ncccn3)cc2)CC1` (stereo not shown) [Compound 727] the “Percent Mortality” value was 100%.

Same assay, conditions: tobacco budworm second instar larvae; 0.25 millimoles of candidate insecticide on the surface of the diet; five-day exposure; inhibition of insect weight relative to untreated controls

`[O-][N+]1(Cc2ccc(Oc3ccccc3F)cc2)CCC(=C(c2ccc(C(F)(F)F)cc2)c2ccc(C(F)(F)F)cc2)CC1` (stereo not shown) [Compound 839] and `FC(F)(F)c1ccc(C(=C2CCN(Cc3ccc(Oc4cnccn4)cc3)CC2)c2ccc(C(F)(F)F)cc2)cc1` [Compound 825] are the same in “Percent Growth Inhibition” value: 100% for the first, 100% for the second.

First: C=CCOC(c1ccc(C(F)(F)F)cc1)C1CCN(Cc2ccc(Oc3ccccn3)cc2)CC1 (stereo not shown) [Compound 769]
Second: CNC(=O)OC(c1ccc(C(F)(F)F)cc1)C1CCN(Cc2ccc(Oc3ccccn3)cc2)CC1 (stereo not shown) [Compound 771]
The “Percent Growth Inhibition” value of the first is lower: 13% for the first, 72% for the second.

First: Fc1cc(F)cc(C(=C2CCN(Cc3ccc(Oc4ncccn4)cc3)CC2)c2ccc(C(F)(F)F)cc2)c1 [Compound 820]
Second: O=C(Nc1cc(F)cc(F)c1)OC(c1ccc(C(F)(F)F)cc1)C1CC[N+]([O-])(Cc2ccc(Oc3ncccn3)cc2)CC1 (stereo not shown) [Compound 765]
The “Percent Growth Inhibition” value of the first is lower: 92% for the first, 100% for the second.

`FC(F)(F)c1ccc(C(=C2CCN(Cc3ccc(Nc4ccccn4)cc3)CC2)c2ccc(C(F)(F)F)cc2)cc1` [Compound 811] and `CC(C)(C)NC(=O)OC(c1ccc(C(F)(F)F)cc1)C1CCN(Cc2ccc(Oc3ccccn3)cc2)CC1` (stereo not shown) [Compound 779] are the same in “Percent Growth Inhibition” value: 100% for the first, 100% for the second.

In the case of `O=C(Nc1cccc(F)c1)OC(c1cc(Cl)cc(Cl)c1)C1CCN(Cc2ccc(Oc3ncccn3)cc2)CC1` (stereo not shown) [Compound 727], the “Percent Growth Inhibition” value is reported as 100%.

Same assay, conditions: tobacco budworm second instar larvae; surface-treated diet; 0.25 millimoles of candidate insecticide on the surface of the diet; five-day exposure; compared to total number of insects infested

First: CCn1nnc(-c2ccc(CN3CCC(=C(c4ccccc4)c4ccc(Cl)cc4)CC3)cc2)n1 [Compound 76]
Second: CCn1nnc(-c2ccc(CN3CCC(C(OC(=O)Nc4ccc(C(F)(F)F)cc4)c4ccc(Cl)c(Cl)c4)CC3)cc2)n1 (stereo not shown) [Compound 576]
The “Percent Mortality” value of the first is lower: 0% for the first, 100% for the second.

`FC(F)(F)c1ccc(C(=C2CCN(Cc3ccc(OCc4nccs4)cc3)CC2)c2ccc(C(F)(F)F)cc2)cc1` [Compound 61] and `CCON=Cc1ccc(CN2CCC(=C(c3ccc(C(F)(F)F)cc3)c3ccc(C(F)(F)F)cc3)CC2)cc1` [Compound 60] are the same in “Percent Mortality” value: 100% for the first, 100% for the second.

`CCn1nnc(-c2ccc(CN3CCC(C(OC(=O)Nc4cccc(C(F)(F)F)c4)c4ccc(C(F)(F)F)cc4)CC3)cc2)n1` (stereo not shown) [Compound 288] and `CCn1nnc(-c2ccc(CN3CCC(C(OC(=O)Nc4ccc(OC(F)(F)F)cc4)c4ccc(OC(F)(F)F)cc4)CC3)cc2)n1` (stereo not shown) [Compound 295] are the same in “Percent Mortality” value: 100% for the first, 100% for the second.

First: O=C(Nc1ccc(F)cc1)OC(c1ccc(OC(F)(F)F)cc1)C1CCN(Cc2ccc(Cl)cc2)CC1 (stereo not shown) [Compound 459]
Second: O=C(Nc1ccc(Cl)cc1)OC(c1ccc(Cl)c(Cl)c1)C1CCN(Cc2ccc(Oc3ccccn3)cc2)CC1 (stereo not shown) [Compound 645]
The “Percent Mortality” value of the first is lower: 0% for the first, 100% for the second.

`O=C(Nc1cccc(Cl)c1Cl)OC(c1ccc(C(F)(F)F)cc1)C1CCN(Cc2ccc(Oc3ccccn3)cc2)CC1` (stereo not shown) [Compound 228] and `[O-][N+]1(Cc2ccc(Oc3cccc(Cl)n3)cc2)CCC(=C(c2ccc(C(F)(F)F)cc2)c2ccc(C(F)(F)F)cc2)CC1` (stereo not shown) [Compound 108] are the same in “Percent Mortality” value: 100% for the first, 100% for the second.

With `CC(C)COC(=O)Nc1ccc(CN2CCC(=C(c3ccc(C(F)(F)F)cc3)c3ccc(C(F)(F)F)cc3)CC2)cc1` [Compound 59] the “Percent Mortality” value was 0%.

Same assay, conditions: tobacco budworm second instar larvae; surface-treated diet; 0.25 millimoles of candidate insecticide on the surface of the diet; five-day exposure; inhibition of insect weight relative to untreated controls

First: CCn1nnc(-c2ccc(CN3CCC(=C(c4ccccc4)c4ccc(Cl)cc4)CC3)cc2)n1 [Compound 76]
Second: CCn1nnc(-c2ccc(CN3CCC(C(OC(=O)Nc4ccc(C(F)(F)F)cc4)c4ccc(Cl)c(Cl)c4)CC3)cc2)n1 (stereo not shown) [Compound 576]
The “Percent Growth Inhibition” value of the first is lower: 91% for the first, 100% for the second.

`FC(F)(F)c1ccc(C(=C2CCN(Cc3ccc(OCc4nccs4)cc3)CC2)c2ccc(C(F)(F)F)cc2)cc1` [Compound 61] and `CCON=Cc1ccc(CN2CCC(=C(c3ccc(C(F)(F)F)cc3)c3ccc(C(F)(F)F)cc3)CC2)cc1` [Compound 60] are the same in “Percent Growth Inhibition” value: 100% for the first, 100% for the second.

Compared with `CCn1nnc(-c2ccc(CN3CCC(C(OC(=O)Nc4cccc(C(F)(F)F)c4)c4ccc(C(F)(F)F)cc4)CC3)cc2)n1` (stereo not shown) [Compound 288], `CCn1nnc(-c2ccc(CN3CCC(C(OC(=O)Nc4ccc(OC(F)(F)F)cc4)c4ccc(OC(F)(F)F)cc4)CC3)cc2)n1` (stereo not shown) [Compound 295] is lower in “Percent Growth Inhibition” value: 100% for the first, 92% for the second.

Going from `O=C(Nc1ccc(F)cc1)OC(c1ccc(OC(F)(F)F)cc1)C1CCN(Cc2ccc(Cl)cc2)CC1` (stereo not shown) [Compound 459] to `O=C(Nc1ccc(Cl)cc1)OC(c1ccc(Cl)c(Cl)c1)C1CCN(Cc2ccc(Oc3ccccn3)cc2)CC1` (stereo not shown) [Compound 645], the “Percent Growth Inhibition” value rises from 99% to 100%.

`O=C(Nc1cccc(Cl)c1Cl)OC(c1ccc(C(F)(F)F)cc1)C1CCN(Cc2ccc(Oc3ccccn3)cc2)CC1` (stereo not shown) [Compound 228] and `[O-][N+]1(Cc2ccc(Oc3cccc(Cl)n3)cc2)CCC(=C(c2ccc(C(F)(F)F)cc2)c2ccc(C(F)(F)F)cc2)CC1` (stereo not shown) [Compound 108] are the same in “Percent Growth Inhibition” value: 100% for the first, 100% for the second.

`CC(C)COC(=O)Nc1ccc(CN2CCC(=C(c3ccc(C(F)(F)F)cc3)c3ccc(C(F)(F)F)cc3)CC2)cc1` [Compound 59] was tested, and the “Percent Growth Inhibition” value was 59%.
